# Test results taken from patent publication US20220204918A1, “CELL CULTURE MEDIA COMPRISING KETO ACIDS” (MERCK PATENT GMBH, priority 2019, published 2022).
# Counter-ions that a name gives are not always drawn.
# Experiments:
# physchem = settings: for solubility at 10 min: 25 °C, pH 7, aqueous with cosolvent or surfactant or cyclodextrin, thermodynamic from solid
# Experimental: Increasing amounts of the keto acids and salts thereof were added to a cell culture feed formulation (Cellvento® 4Feed, MilliporeSigma) depleted in Ile and Leu. Similarly, increasing amount of Ile and Leu were added to the same feed formulation as a control. The total concentration of this feed formulation was 125 g/L and the pH was 7.0+/−0.2. In small scale experiments, after each addition of either the amino acid or the keto acid, the feed was agitated for 10 mins and turbidity was measured. The experiments were performed at room temperature (25° C.).
# [1] = Solubility in water at 25° C. (saturated solution, residual mass after infrared drying); assay type: physicochemical; settings: for Solubility (amino acid) / Solubility 25° C. in g/kg (corresponding keto acid) / maximum solubilities obtained in water: water; for Solubility (amino acid) / Solubility 25° C. in g/kg (corresponding keto acid): 25° C.; for maximum solubilities obtained in water: separate experiments
# Experimental: After sedimentation, the solution was dried using infrared (120° C., 120 min) and the residual mass was determined in g/kg.
# [2] = FB culture with other keto acids replacing their amino acid in the feed; assay type: cell-based
# From the text: Other keto acids have been tested as replacement for their respective amino acids in FB experiments. A very similar behavior compared to Ile and Leu was observed when Val was replaced by keto Val in the feed (FIG. 17). Indeed, similar VCD and titer were observed compared to the positive control whereas the feed depleted in Val leads to a drastic decrease in the VCD, as well as a very low titer after day 7. […] Due to the structural similarity to keto Ile and keto Leu, the effect of keto Val on overall feed concentration and feed stability is similar to the other branched chain keto acids. 6× higher solubility when compared to Val was confirmed in water.
# For phenylalanine (Phe) and its respective keto acid phenylpyruvate (FIG. 18), the amination reaction to build Phe in cell culture seemed to be slower than the amination reactions occurring for branched chain keto acids. […] Following that result, a condition where 2× the molar equivalent of Phe was used as a concentration of phenylpyruvate in the feed.
# [3] = Feed stability: change in color, AUC of absorbance 300-600 nm over 90 days; assay type: physicochemical
# Experimental: The stability of a feed containing Ile and Leu (Cellvento® 4Feed) was compared to the stability of the same feed depleted in Ile/Leu and with supplementation of either keto Leu or keto Ile. The feeds were prepared according to the standard protocol. The final pH was 7.0+/−0.2 and the feeds were stored at 4° C. or RT protected or exposed to light. The change in color of the formulations were monitored during 90 days by measuring the absorbance in the range from 300 nm to 600 nm (intervals of 5 nm). Conditions were compared by calculating the area under the curve (AUC) over time (between D0 and D90) of the baseline corrected area under the curve of the absorbance scan (300 nm-600 nm).
# [4] = test system: CHOK1GS suspension cell line expressing a human IgG1; experiment: 17-days fed-batch process with keto acid replacing amino acid in the feed; assay type: cell-based; settings: for amount of NH3 produced compared to control: 17-days fed-batch
# Experimental: For cell culture experiments, a CHOK1GS suspension cell line expressing a human IgG1, was used. Cells were cultivated in quadruplicate in Cellvento 4CHO medium (Merck Darmstadt, Germany) using 50 mL spin tubes with a starting culture volume of 30 mL and a seeding density of 2×10^5 cells/mL. Incubation was carried out at 37° C., 5% CO2, 80% humidity and an agitation of 320 rpm. The keto acids were added in the Feed (4Feed depleted in Ile and leu) instead of their respective amino acids. The pH of all the feeds was neutral (pH 7.0+/−0.2). The positive control contained the normal amino acids whereas the negative control contained the feed depleted in the respective amino acid and without addition of keto acid. Feeding was carried out at days 3, 5, 7, 10 and 14 at the following v/v ratios (3, 3, 6, 3 and 3%). Glucose was quantified daily and adjusted to 6 g/L using a 400 g/L glucose solution. The experiment was repeated at least 3 times.
# The viable cell density (VCD) and viability were evaluated with a Vi-CELL XR (Beckman Coulter, Fullerton, Calif.). Metabolite concentrations were monitored using a Cedex Bio HT (Roche Diagnostics, Mannheim, Germany) based on spectrophotometric and turbidometric methods. Quantification of amino acids was carried out via UPLC after derivatization with the AccQ⋅TagUltra® reagent kit. Derivatization, chromatography and data analysis were carried out following the supplier recommendations (Waters, Milford, Mass.).
# The productivity per cell per day was calculated daily by dividing the titer by the corrected integral VCD to take into account the dilution resulting from feeding. The overall specific productivity was determined by calculating the slope from the linear regression between titer and corrected integral VCD.
# CHOK1GS cell line [5] = experiment: Serial passaging and batch experiment in Leu/Ile depleted Cellvento 4CHO with keto acids; assay type: cell-based; settings: for initial keto acid concentration detected in form of the amino acid: day 3
# From the text: To confirm that this is applicable in CHO systems, keto Leu or keto Ile were used as replacement for Leu and Ile respectively in a cell culture medium (Cellvento® 4CHO). A Leu/Ile depleted version of the formulation was produced and equimolar concentrations of keto Leu vs Leu and keto Ile vs Ile were used (FIG. 15). Cell growth and viability of a CHOK1GS cell line were monitored over several weeks in serial passaging experiments to make sure that the growth is not due to residual amounts of Leu or Ile. A batch experiment with a seeding density of 0.2 million cells/mL was designed and IgG production was measured over time. The production of the amino acids was followed with time using amino acids quantification in the spent medium.
# [6] = Feed stability: NH3 formed during 3 months storage (AUC of NH3 concentration); assay type: physicochemical; settings: for less ammonia produced compared to control: 4° C.; for reduced ammonia level compared to control: RT
# Experimental: Finally, the amount of ammonium ions formed during storage of the feed containing keto acids at 4° C. or RT was lower when compared to the feed containing the normal amino acids. To be able to evaluate the formation of the NH3 over the entire period of the stability study, the AUC of the NH3 concentration was calculated for the timeframe of 3 months to compare the conditions.
# CHOK1GS cell line [7] = experiment: Batch experiments with higher seeding densities and different Leu/keto Leu ratios; assay type: cell-based
# Experimental: In a similar way, batch experiments with higher cell seeding densities were performed in media containing different ratios of Leu/keto Leu to understand which ratios are preferable when starting with higher cell densities (FIG. 16). The analytic used was the same as described above.
# Finally, batch experiments with higher cell densities were performed to determine whether keto Leu is readily available when starting with high seeding densities or if a minimum concentration of free leucine has to be present to support growth and productivity in these conditions. For this experiment, a CHOK1GS cell line was seeded at 0.3, 0.6 or 1.10^6 cells/mL in a medium containing 0, 25, 50, 75, or 100% of keto Leu, the rest being added in form of Leucine.
# [8] = test system: CHODG44 cell line expressing an IgG1; experiment: Fed-batch with keto Leu, CHODG44; assay type: cell-based
# [9] = Feed stability: precipitation during storage; assay type: physicochemical
# Experimental: In addition, when using keto Leu instead of Leu in the feed, the precipitation of the feed was delayed. To observe precipitation, the 50 mL falcon tubes were turned back to see possible sedimentation on the bottom of the tube and pictures were taken. […] A complete inhibition of precipitation was not observed at RT exposed to light but the precipitation was delayed in the keto Leu condition. Whereas precipitation was observed starting at D49 for the control condition, initial precipitation appeared at D70 for the keto Leu condition.
# [10] = Val replaced by keto Val in the feed
# [11] = equivalent molar concentration (1×)
# [12] = batch, seeding density 0.2 million cells/mL
smiles,measurement,setting,value
"CC[C@H](C)[C@H](N)C(=O)O [Isoleucine, reference compound]",solubility at 10 min,physchem,~105 mM
same,Solubility (amino acid),[1],32.4 g/kg
"CSCC[C@H](N)C(=O)O [Methionine, reference compound]",Solubility (amino acid),[1],52.9 g/kg
CSCCC(=O)C(=O)O [Alpha keto gamma methylthiobutyric acid sodium salt],Solubility 25° C. in g/kg (corresponding keto acid),[1],>500 g/kg
"CC(C)C(=O)C(=O)[O-].[Na+] [keto Val, α-Ketoisovaleric acid sodium salt]",higher solubility when compared to Val,[1]; in water,6 ×
same,Solubility 25° C. in g/kg (corresponding keto acid),[1],362 g/kg
same,NH3 concentration,[2]; [10],lower
same,VCD compared to positive control,[2]; [10],similar
same,titer compared to positive control,[2]; [10],similar
"CC(C)C[C@H](N)C(=O)[O-].[Na+] [Leu sodium salt, reference compound]",maximum solubilities obtained in water,[1],86.0 g/kg
"CC(C)[C@H](N)C(=O)O [Valine, reference compound]",Solubility (amino acid),[1],58.5 g/kg
"CC(C)C[C@H](N)C(=O)O [Leucine, reference compound]",solubility at 10 min,physchem,~90 mM
same,maximum solubilities obtained in water,[1],22.1 g/kg
same,Solubility (amino acid),[1],22.1 g/kg
"O=C([O-])C(=O)Cc1ccccc1.[Na+] [phenylpyruvate, Phenylpyruvic acid sodium salt]",Solubility 25° C. in g/kg (corresponding keto acid),[1],72 g/kg
same,Phe in the spent medium vs control,[2]; 2× the molar equivalent of Phe,very similar amount
same,VCD vs control,[2]; 2× the molar equivalent of Phe,restore
same,titer vs control,[2]; 2× the molar equivalent of Phe,restore
same,Phe in the supernatant compared to negative control,[2]; [11],more Phe
same,final reduction of titer,[2]; [11],20%
same,VCD vs control,"[2]; equivalent molar concentration (1×), after day 5",significant lower VCD
"CCC(C)C(=O)C(=O)[O-].[Na+] (stereo not drawn) [keto Ile, 3-Methyl-2-oxopentanoic acid sodium salt]",times more soluble than the amino acid,physchem,at least 6 times
same,solubility at 10 min,physchem,≥ 635 mM
same,Solubility 25° C. in g/kg (corresponding keto acid),[1],480 g/kg
same,decrease of AUC (change in color) vs control,"[3]; 4° C., light exposed",68%
same,decrease of AUC (change in color) vs control,"[3]; 4° C., light protected",33%
same,decrease of AUC (change in color) vs control,"[3]; RT, light exposed",38%
same,decrease of AUC (change in color) vs control,"[3]; RT, light protected",no decrease
same,amount of NH3 produced compared to control,[4],significantly reduced
same,allo-Ile peak in spent medium,[4]; Ile replaced with keto Ile,increased with time
same,concentration of Ile in the spent medium vs positive control,[4]; Ile replaced with keto Ile,significantly lower
same,IgG vs control,CHOK1GS cell line [5]; [12],slightly impaired
same,growth / performance vs control,CHOK1GS cell line [5]; [12],slightly impaired
same,initial keto acid concentration detected in form of the amino acid,CHOK1GS cell line [5]; spent medium,21%
same,initial keto Ile concentration detected in the form of allo-Ile,"CHOK1GS cell line [5]; spent medium, up to day 10",35%
same,less ammonia produced compared to control,[6]; light exposed,24%
same,less ammonia produced compared to control,[6]; light protected,21%
same,reduced ammonia level compared to control,[6]; light exposed,25%
same,reduced ammonia level compared to control,[6]; light protected,28%
"N[C@@H](Cc1ccccc1)C(=O)O [Phenylalanine, reference compound]",Solubility (amino acid),[1],26.8 g/kg
"CC(C)CC(=O)C(=O)[O-].[Na+] [keto Leu, 4-Methyl-2-oxopentanoic acid sodium salt]",keto Leu share at which highest VCD was observed,CHOK1GS cell line [7]; seeding 0.6.10^6 and 0.3.10^6 cells/mL,50%
same,titer between ratios keto Leu/Leu,CHOK1GS cell line [7]; seeding at 0.3 and 1.10^6 cells/mL,no significant difference
same,IgG concentration between ratios keto Leu/Leu,CHOK1GS cell line [7]; seeding at 0.6.10^6 cells/mL,slight trend
same,keto Leu exchange at which maximum VCD was observed,CHOK1GS cell line [7]; seeding density 1.10^6 cells/mL,100%
same,times more soluble than the amino acid,physchem,2.6 times
same,solubility at 10 min,physchem,240 mM
same,maximum solubilities obtained in water,[1],313.7 g/kg
same,Solubility 25° C. in g/kg (corresponding keto acid),[1],313.7 g/kg
same,decrease of AUC (change in color) vs control,"[3]; 4° C., light exposed",8%
same,decrease of AUC (change in color) vs control,"[3]; 4° C., light protected",27%
same,decrease of AUC (change in color) vs control,"[3]; RT, light exposed",37%
same,decrease of AUC (change in color) vs control,"[3]; RT, light protected",31%
same,amount of NH3 produced compared to control,[4],significantly reduced
same,concentration of Leu in the spent medium vs positive control,[4]; Leu replaced with keto Leu,slightly lower
same,IgG titer compared to control,[8],slightly lower
same,Leu concentration in spent media vs control,[8],nearly similar
same,VCD compared to control,[8],lower VCD
same,overall specific productivity,[8],slightly increased
same,amount and color intensity of precipitate vs control,"[9]; RT light exposed, days after D70",lower
same,precipitation,[9]; RT light protected,no precipitation
same,growth / performance vs control,CHOK1GS cell line [5]; [12],comparable
same,initial keto acid concentration detected in form of the amino acid,CHOK1GS cell line [5]; spent medium,34%
same,less ammonia produced compared to control,[6]; light exposed,19%
same,less ammonia produced compared to control,[6]; light protected,10%
same,reduced ammonia level compared to control,[6]; light exposed,5%
same,reduced ammonia level compared to control,[6]; light protected,15%
